Test results published in publication PMC8895377, “In Vivo Targeting Replication Protein A for Cancer Therapy” (Frontiers in Oncology, 2022).
Like-named read-outs stand apart in the source and are kept apart here.

How the values were obtained:
[1] = Pharmacokinetics in mice (plasma, HPLC-MS/MS); format: in vivo; settings: for AUC(0-inf): read-out: AUC 0-inf_obs; for k el: read-out: Lambda_z (converted); for MRT inf: read-out: MRT 0-inf_obs
Procedure: A method to quantify 329 from plasma has been developed using an internal standard, liquid–liquid extraction, and HPLC-MS/MS. Mouse plasma samples were prepared from treated mice at the indicated times frozen at -80°C until analysis. Plasma samples were thawed (20 µl) and transferred to polypropylene tubes, and the internal standard is added (20 µl of 0.1 ng/µl). Samples were diluted in 0.1 M phosphate buffer (pH = 7.4) and equal volume of methyl tertiary butyl ether. The samples were mixed and centrifuged at 12,000×g for 5 min, and the supernatant was transferred to a clean polypropylene tube. The solvent was evaporated to dryness, brought up in mobile phase analyzed by HPLC-MS/MS (ABSciex 4000). The mobile phase is delivered via gradient using acetonitrile and 0.1% formic acid on an Agilent Zorbax 300SB-C8 150 × 4.6 mm, 5-µm column. The mass spectrometer utilized an electrospray ionization probe run in positive mode. Multiple reaction monitoring was employed with Q1/Q3 (m/z) transitions for 329 at 718.2/128.1 and 687.3/128.1 for the internal standard. The lower limit of quantification is 0.1 ng/ml using 20 µl of plasma.
PK parameters were assessed in a series of studies in immunocompetent mice both IV and IP ( Figure 7B and Table 4 ). […] The half-life was also well within acceptable range (9 h).

[2] = molecular target: T1, RPA–DNA interaction (purified full-length RPA) (Homo sapiens, UniProt P27694); experiment: EMSA of RPA–DNA interaction inhibition; format: binding; settings: 6.25, 12.5, 25, 50 µM RPAi
T1 construct: Purified full-length RPA (120 ng) was incubated with the indicated RPAi
Procedure: EMSAs were performed as previously described ([9]). Briefly, reactions were conducted in 20 mM HEPES (pH 7.8), 1 mM DTT, 0.001% NP-40, and 50 mM NaCl. RPAis were suspended in 100% dimethlysulfoxide (DMSO), and DMSO concentration in the final reaction mixture was constant at less than 5%. Purified full-length RPA (120 ng) was incubated with the indicated RPAi or vehicle in reaction buffer for 30 min before the addition of the [^32]P-labeled 34-base ssDNA probe. Reactions were incubated for 5 min at room temperature, and products were separated via 6% native polyacrylamide gel electrophoresis. The bound and unbound fractions were quantified by phosphor-imager analysis using ImageQuant software (Molecular Dynamics, CA), and data were fit by non-linear regression using GraphPad Prism.
Figure 2 Replication protein A inhibitor (RPAi) inhibitory activity. (A) Chemical structure of RPAi’s 329 and 2004. (B) EMSA analysis of RPA–DNA interaction inhibition by 329 and 2004. Lanes 3–6 in each panel contain 6.25, 12.5, 25, and 50 µM of the indicated RPAi, respectively. The * indicates the position of the Escherichia coli SSB–single-stranded DNA (ssDNA) complex that serves as an internal specificity control. (C) Cell viability of H460 NSCLC cells in response to 329 and 2004.

[3] = Intrinsic clearance and half-life in rat microsomes; format: in vitro ADME; settings: for microsomal CLint: rat, microsomes
Excerpt: Toward the goal to identify efficacious and safe RPAi 329 treatment regimens, we conducted single-agent screening in two lung cancer cell line-derived xenograft models. […] Having optimized cellular uptake and solubility via the addition of the propyl morpholino in 329 and 2004, we sought to determine how these modifications impact in vivo anticancer activity using two NSCLC models, A549 adenocarcinoma and H460 large cell carcinoma. […] Analyses of intrinsic clearance and half-life were conducted in mouse and rat microsomes ( Table 1 ). […] These values are less than the rate of 48, which is considered rapid clearance. In rat microsomes, rates of ~64 were obtained for 329 and are less than the rapid rate of 71.

[4] = IP, DMSO vehicle, 200 mg/kg, mice
[5] = IP, NMP vehicle, 20 mg/kg, mice
[6] = IP, NMP vehicle, 200 mg/kg, mice
[7] = mouse, plasma, ip, 20 mg/kg, IP, NMP vehicle, 20 mg/kg, mice
[8] = mouse, plasma, ip, 20 mg/kg, NMP vehicle, mice
[9] = mouse, plasma, ip, 200 mg/kg, DMSO vehicle, mice
[10] = mouse, plasma, ip, 200 mg/kg, IP, DMSO vehicle, 200 mg/kg, mice
[11] = mouse, plasma, ip, 200 mg/kg, IP, NMP vehicle, 200 mg/kg, mice
[12] = mouse, plasma, ip, 200 mg/kg, NMP vehicle, mice
[13] = mouse, plasma, iv, 2 mg/kg, IV, NMP vehicle, 2 mg/kg, mice
[14] = mouse, plasma, iv, 2 mg/kg, NMP vehicle, mice

T1 sequence (P27694 whole entry): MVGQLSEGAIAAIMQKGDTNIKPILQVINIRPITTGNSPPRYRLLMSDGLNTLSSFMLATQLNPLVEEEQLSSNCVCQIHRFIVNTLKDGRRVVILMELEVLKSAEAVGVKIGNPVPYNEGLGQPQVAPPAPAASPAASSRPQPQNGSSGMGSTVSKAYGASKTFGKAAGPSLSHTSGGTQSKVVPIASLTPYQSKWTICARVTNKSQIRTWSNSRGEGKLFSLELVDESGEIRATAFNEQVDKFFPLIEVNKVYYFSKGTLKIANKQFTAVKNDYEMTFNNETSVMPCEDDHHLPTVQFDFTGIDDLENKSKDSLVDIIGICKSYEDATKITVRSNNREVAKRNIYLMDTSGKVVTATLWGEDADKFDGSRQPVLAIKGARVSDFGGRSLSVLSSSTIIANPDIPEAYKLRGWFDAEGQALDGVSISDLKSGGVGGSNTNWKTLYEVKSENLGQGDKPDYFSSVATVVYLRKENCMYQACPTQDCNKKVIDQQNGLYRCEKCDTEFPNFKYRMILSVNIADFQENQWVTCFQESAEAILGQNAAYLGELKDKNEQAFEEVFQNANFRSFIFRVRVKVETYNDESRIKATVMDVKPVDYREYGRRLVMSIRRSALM
T1 sequence (P15927 whole entry partner): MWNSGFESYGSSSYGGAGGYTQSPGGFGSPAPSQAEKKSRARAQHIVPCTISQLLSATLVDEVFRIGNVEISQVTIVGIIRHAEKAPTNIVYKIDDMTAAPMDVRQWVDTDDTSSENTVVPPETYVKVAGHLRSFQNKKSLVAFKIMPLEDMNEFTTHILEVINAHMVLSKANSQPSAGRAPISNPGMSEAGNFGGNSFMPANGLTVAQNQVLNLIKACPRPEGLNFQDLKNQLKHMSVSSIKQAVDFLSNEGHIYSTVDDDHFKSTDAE
T1 sequence (P35244 whole entry partner): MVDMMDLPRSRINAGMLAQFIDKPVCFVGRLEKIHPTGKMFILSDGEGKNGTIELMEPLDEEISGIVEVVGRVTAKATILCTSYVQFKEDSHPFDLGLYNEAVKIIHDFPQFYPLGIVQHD

Question: With CCOc1ccc2cc(C3CC(c4ccc(I)cc4)=NN3C(=O)CCCC(=O)NCCCN3CCOCC3)c(Cl)nc2c1 (stereo not shown) [compound 329] as the compound, how does the “AUC and Cmax compared to 551” value ([1]; DMSO/Tween formulation, data not shown) read?
Answer: significant reduction in AUC and Cmax

Question: What about the “AUMC 0-inf_obs” value [1, 4] of the same compound?
Answer: 95023.52 ng/ml*h^2

Question: And the CI/F_obs [1, 4]?
Answer: 0.0902 (mg/kg)/(ng/ml)/h

Question: And the Vz/F_obs [1, 4]?
Answer: 4.015 (mg/kg)/(ng/ml)

Question: And the “AUMC 0-inf_obs” value [1, 5]?
Answer: 98489.24 ng/ml*h^2

Question: What about the CI/F_obs [1, 5] of the same compound?
Answer: 0.0012 (mg/kg)/(ng/ml)/h

Question: And the Vz/F_obs [1, 5]?
Answer: 0.011 (mg/kg)/(ng/ml)

Question: And the “AUMC 0-inf_obs” value [1, 6]?
Answer: 947545.56 ng/ml*h^2

Question: What about the Vz/F_obs [1, 6] of the same compound?
Answer: 0.172 (mg/kg)/(ng/ml)

Question: What about the “AUMC 0-inf_obs” value ([1]; IV, NMP vehicle, 2 mg/kg, mice) of the same compound?
Answer: 1897.83 ng/ml*h^2

Question: And the CI/F_obs ([1]; IV, NMP vehicle, 2 mg/kg, mice)?
Answer: 0.0014 (mg/kg)/(ng/ml)/h

Question: What about the Vz/F_obs ([1]; IV, NMP vehicle, 2 mg/kg, mice) of the same compound?
Answer: 0.007 (mg/kg)/(ng/ml)

Question: What about the bioavailability ([1]; mouse, plasma, intraperitoneal, IP at 20 mg/kg versus IV dosing, read-out: absolute bioavailability) of the same compound?
Answer: 84%

Question: What about the AUC(0-inf) [1, 7] of the same compound?
Answer: 16500 ng·h/mL

Question: What about the k el [1, 7] of the same compound?
Answer: 3.06e-05 s⁻¹

Question: And the MRT inf [1, 7]?
Answer: 5.98 h

Question: And the half-life ([1]; mouse, plasma, ip, 20 mg/kg, IP, NMP vehicle, 20 mg/kg, mice, read-out: t1/2 (converted))?
Answer: 6.3 h

Question: What about the AUC(0-t) [1, 8] of the same compound?
Answer: 16400 ng·h/mL

Question: And the Cmax [1, 8]?
Answer: 2510 ng/mL

Question: What about the Tmax [1, 8] of the same compound?
Answer: 2 h

Question: And the AUC(0-t) [1, 9]?
Answer: 968 ng·h/mL

Question: And the Cmax [1, 9]?
Answer: 92.1 ng/mL

Question: What about the Tmax [1, 9] of the same compound?
Answer: 0.25 h

Question: What about the AUC(0-inf) [1, 10] of the same compound?
Answer: 2220 ng·h/mL

Question: What about the k el [1, 10] of the same compound?
Answer: 5.56e-06 s⁻¹

Question: And the MRT inf [1, 10]?
Answer: 42.8 h

Question: And the half-life ([1]; mouse, plasma, ip, 200 mg/kg, IP, DMSO vehicle, 200 mg/kg, mice, read-out: t1/2 (converted))?
Answer: 30.9 h

Question: What about the AUC(0-inf) [1, 11] of the same compound?
Answer: 64300 ng·h/mL

Question: What about the k el [1, 11] of the same compound?
Answer: 1.94e-05 s⁻¹

Question: What about the MRT inf [1, 11] of the same compound?
Answer: 14.7 h

Question: And the half-life ([1]; mouse, plasma, ip, 200 mg/kg, IP, NMP vehicle, 200 mg/kg, mice, read-out: t1/2 (converted))?
Answer: 9.31 h

Question: And the half-life ([1]; mouse, plasma, ip, 200 mg/kg, IP, new formulation, 200 mg/kg, read-out: half-life (converted))?
Answer: 9 h

Question: And the AUC(0-t) [1, 12]?
Answer: 52000 ng·h/mL

Question: What about the Cmax [1, 12] of the same compound?
Answer: 2910 ng/mL

Question: What about the Tmax [1, 12] of the same compound?
Answer: 8 h

Question: And the AUC(0-inf) [1, 13]?
Answer: 1410 ng·h/mL

Question: What about the k el [1, 13] of the same compound?
Answer: 5.83e-05 s⁻¹

Question: What about the MRT inf [1, 13] of the same compound?
Answer: 1.35 h

Question: And the half-life ([1]; mouse, plasma, iv, 2 mg/kg, IV, NMP vehicle, 2 mg/kg, mice, read-out: t1/2 (converted))?
Answer: 3.28 h

Question: What about the AUC(0-t) [1, 14] of the same compound?
Answer: 1400 ng·h/mL

Question: And the Cmax [1, 14]?
Answer: 841 ng/mL

Question: What about the Tmax [1, 14] of the same compound?
Answer: 0.5 h

Question: And the “RPA inhibitory activity (RPA–DNA interaction, EMSA)” value [2]?
Answer: potent RPA inhibitory activity

Question: What about the half-life ([3]; Rat microsomes) of the same compound?
Answer: 0.362 h

Question: What about the microsomal CLint ([3]; Rat microsomes, read-out: CLint) of the same compound?
Answer: 63.8 µL/min/mg

Question: What about the microsomal CLint ([3]; rat microsomes, read-out: rate of clearance) of the same compound?
Answer: ~64 µL/min/mg
